Biological target: T1, rIrtA (Rv1348) in LP-48 liposomes (Mycobacterium tuberculosis, UniProt P9WQJ9)
T1 construct: gene irtA
T1 sequence (P9WQJ9 whole entry): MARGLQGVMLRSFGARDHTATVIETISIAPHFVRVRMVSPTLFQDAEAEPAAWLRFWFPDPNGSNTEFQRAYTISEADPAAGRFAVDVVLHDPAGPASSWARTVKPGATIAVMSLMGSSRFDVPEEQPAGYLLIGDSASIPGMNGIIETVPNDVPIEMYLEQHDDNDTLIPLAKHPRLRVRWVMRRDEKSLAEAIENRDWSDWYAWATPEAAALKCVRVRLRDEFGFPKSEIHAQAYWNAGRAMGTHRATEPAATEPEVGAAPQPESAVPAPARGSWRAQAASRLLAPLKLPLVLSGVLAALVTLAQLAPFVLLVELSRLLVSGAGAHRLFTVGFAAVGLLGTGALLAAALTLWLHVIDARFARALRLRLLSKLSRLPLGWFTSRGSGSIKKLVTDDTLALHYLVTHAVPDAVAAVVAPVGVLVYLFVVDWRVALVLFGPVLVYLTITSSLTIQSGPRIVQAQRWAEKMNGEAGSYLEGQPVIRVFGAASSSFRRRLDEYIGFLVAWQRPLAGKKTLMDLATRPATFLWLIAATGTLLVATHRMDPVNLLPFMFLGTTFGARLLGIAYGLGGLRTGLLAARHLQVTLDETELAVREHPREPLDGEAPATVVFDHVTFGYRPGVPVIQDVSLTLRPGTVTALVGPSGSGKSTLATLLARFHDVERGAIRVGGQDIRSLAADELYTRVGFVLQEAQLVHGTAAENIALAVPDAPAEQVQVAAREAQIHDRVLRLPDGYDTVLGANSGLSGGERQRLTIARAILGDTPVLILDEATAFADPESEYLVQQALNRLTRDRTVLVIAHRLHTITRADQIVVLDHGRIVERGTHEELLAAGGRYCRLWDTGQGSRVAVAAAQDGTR

Nc1ncnc2c1ncn2[C@@H]1O[C@H](COP(=O)(O)OP(=O)(O)OP(=O)(O)O)[C@@H](O)[C@H]1O [ATP]
inorganic phosphate release in proteoliposomes: the ATP hydrolysis by rIrtA was not seen in the absence of cMyco
